From PubChem BioAssay AID1259407 (Chemical Carcinogenesis Research Information System (CCRIS), 2018) come the findings set out here.

Calls of active or inactive are those of the source. How the calls were made is not given here.

For this series, the system named is CCRIS mutagenicity, Ames/micronucleus/aberration tests. Put plainly: CCRIS mutagenicity studies.
The mark [1] stands for this setting: Test System: AMES SALMONELLA TYPHIMURIUM, Strain/Indicator: TA98, Metabolic Activation: NONE, Method: PREINCUBATION
Where [2] appears, read: Test System: AMES SALMONELLA TYPHIMURIUM, Strain/Indicator: TA100, Metabolic Activation: NONE, Method: PREINCUBATION
[3] abbreviates: Test System: AMES SALMONELLA TYPHIMURIUM, Strain/Indicator: TA98, Metabolic Activation: NONE, Method: STANDARD PLATE.
Where [4] appears, read: Test System: AMES SALMONELLA TYPHIMURIUM, Strain/Indicator: TA100, Metabolic Activation: NONE, Method: STANDARD PLATE.

As to `CC(=O)Nc1ccc(Oc2ccc(NO)cc2)cc1`, the mutagenic call is “active; positive” (Test System: AMES SALMONELLA TYPHIMURIUM, Strain/Indicator: TA98(1,8-DNP6), Metabolic Activation: NONE, Method: PREINCUBATION); “active; positive” (Test System: AMES SALMONELLA TYPHIMURIUM, Strain/Indicator: TA98(1,8-DNP6), Metabolic Activation: RAT, LIVER, S-9, AROCLOR 1254, Method: PREINCUBATION); “active; positive” (Test System: AMES SALMONELLA TYPHIMURIUM, Strain/Indicator: TA98(NR), Metabolic Activation: NONE, Method: PREINCUBATION); “active; positive” (Test System: AMES SALMONELLA TYPHIMURIUM, Strain/Indicator: TA98(NR), Metabolic Activation: RAT, LIVER, S-9, AROCLOR 1254, Method: PREINCUBATION); “active; positive” under setting [1]; “active; positive” (Test System: AMES SALMONELLA TYPHIMURIUM, Strain/Indicator: TA98, Metabolic Activation: RAT, LIVER, S-9, AROCLOR 1254, Method: PREINCUBATION). Moreover, the mutagenic call (Test System: AMES SALMONELLA TYPHIMURIUM, Strain/Indicator: TA100(NR), Metabolic Activation: NONE, Method: PREINCUBATION) is “active; positive” and the mutagenic call under setting [2] was “active; positive”.
As to `CN(C)Nc1nc(-c2ccc([N+](=O)[O-])o2)cs1`, the mutagenic call by setting is: (Test System: AMES SALMONELLA TYPHIMURIUM, Strain/Indicator: TA100, Metabolic Activation: RAT, LIVER, S-9, KC500 OR PHENOBARBITAL, Method: LIQUID SUSPENSION) “active; positive”; (Test System: E. COLI WP2, Strain/Indicator: WP2, Metabolic Activation: NONE, Method: SPOT) “active; positive”.
For the molecule `O[C@@H]1[C@@H]2O[C@@H]2c2c(ccc3cc4c(ccc5ccccc54)nc23)[C@H]1O`, the mutagenic call runs as follows: under setting [1], “active; positive”; under setting [2], “active; positive”; (Test System: CHINESE HAMSTER V-79, Strain/Indicator: V-79/8-AZAGUANINE, Metabolic Activation: NONE) “active; positive”.
As for `CCCCCC/C=C\CCCCCCOC(C)=O`, the mutagenic call is, setting by setting: under setting [3], “inactive; negative”; (Test System: AMES SALMONELLA TYPHIMURIUM, Strain/Indicator: TA98, Metabolic Activation: RAT, LIVER, S-9, Method: STANDARD PLATE) “inactive; negative”; under setting [4], “inactive; negative”; (Test System: AMES SALMONELLA TYPHIMURIUM, Strain/Indicator: TA100, Metabolic Activation: RAT, LIVER, S-9, Method: STANDARD PLATE) “inactive; negative”; (Test System: AMES SALMONELLA TYPHIMURIUM, Strain/Indicator: TA102, Metabolic Activation: NONE, Method: STANDARD PLATE) “inactive; negative”; (Test System: AMES SALMONELLA TYPHIMURIUM, Strain/Indicator: TA102, Metabolic Activation: RAT, LIVER, S-9, Method: STANDARD PLATE) “inactive; negative”.
For the molecule `Nc1ccc(/C=C/c2ccccc2)cc1`, the mutagenic call is, setting by setting: (Test System: AMES SALMONELLA TYPHIMURIUM, Strain/Indicator: TA98(1,8-DNP6), Metabolic Activation: NONE, Method: STANDARD PLATE) “inactive; negative”; (Test System: AMES SALMONELLA TYPHIMURIUM, Strain/Indicator: TA98(1,8-DNP6), Metabolic Activation: S-9, Method: STANDARD PLATE) “active; positive”; (Test System: AMES SALMONELLA TYPHIMURIUM, Strain/Indicator: TA98, Metabolic Activation: RAT LIVER S9, AROCLOR, Method: STANDARD PLATE) “active; positive”; (Test System: AMES SALMONELLA TYPHIMURIUM, Strain/Indicator: TA98, Metabolic Activation: RAT, LIVER, S-9, AROCLOR 1254, Method: STANDARD PLATE) “active; positive”; (Test System: AMES SALMONELLA TYPHIMURIUM, Strain/Indicator: TA98, Metabolic Activation: S-9, Method: STANDARD PLATE) “active; positive”; under setting [4], “inactive; negative”. Further, the mutagenic call was “active; positive” (Test System: AMES SALMONELLA TYPHIMURIUM, Strain/Indicator: TA100, Metabolic Activation: RAT, LIVER, S9, AROCLOR, Method: STANDARD PLATE); “active; positive” (Test System: AMES SALMONELLA TYPHIMURIUM, Strain/Indicator: TA100, Metabolic Activation: RAT, LIVER, S-9, AROCLOR 1254, Method: STANDARD PLATE); “active; positive” (Test System: AMES SALMONELLA TYPHIMURIUM, Strain/Indicator: TA100, Metabolic Activation: RAT, LIVER, S-9, PHENOBARBITAL, Method: STANDARD PLATE); “active; positive” (Test System: AMES SALMONELLA TYPHIMURIUM, Strain/Indicator: TA100, Metabolic Activation: S-9, Method: STANDARD PLATE); “active; positive” (Test System: AMES SALMONELLA TYPHIMURIUM, Strain/Indicator: TA1538, Metabolic Activation: RAT, LIVER, S-9, PHENOBARBITAL, Method: STANDARD PLATE).
In the case of `ClCc1cccc2c1-c1cccc3cccc-2c13`, the mutagenic call by setting is: under setting [3], “active; positive”; under setting [4], “active; positive”.
